The values below come from patent US5273992A, “Method for reducing sickle erythrocyte dehydration and delaying the occurrence of erythrocyte sickling in-situ” (Beth Israel Hospital Assoc. Inc., priority 1992, dated 1993).

Where “and” joins values, the source holds several entries; their conditions need not be identical. Equal entries are not always repeated. Entries after “also recorded” stand apart in the source; their conditions may differ. Where two headings read alike, the source gives them in different places.

In series [1] the target is T1, Ca^2+-activated K+ channel (Gardos channel) of sickle erythrocytes (Homo sapiens, UniProt O15554).
T1 construct: Blood was collected after obtaining informed consent from patients; endogenous in cells; host or cells: erythrocytes (SS) from patients homozygous for Hb S
Briefly: Ca^2+-activated ^86Rb influx in sickle (SS) erythrocytes. The format is cell-based. The procedure:
Patients homozygous for Hb S disease were selected. Blood was collected after obtaining informed consent from patients followed in the Hematology Division Clinic at Brigham and Women's Hospital and in the Boston Comprehensive Sickle Cell Center at Boston City Hospital. None of the patients had been transfused in the preceding 120 days.
Other experiments were carried out in normal saline (140 mM NaCl, 2 mM KCl, 10 mM tris-HCl, pH 8.0). At the end of the incubation, triplicate samples of each cell suspension were spun at 3,000 g for 10 min. The supernatant was then removed and a smaller volume of medium containing A23187 (60 μM CaCl2, and ^86 Rb was added to achieve a final Hct of 4-5%. Aliquots of cell suspension were taken at specified times (1, 3, and 5 min) and spun through 0.8 ml of medium with 5 mM EGTA and a 0.4 ml cushion of butyl-phthalate. The resultant supernatant and the upper layer of oil were carefully removed, the tube contents frozen at -80° C. and the tube tip containing the cell pellet cut off and counted.

In series [2] the test system is SS cells (sickle erythrocytes). The format is cell-based, human. The settings on record: for Inhibition of dehydration of SS cells (in words): 60 μmol A23187/L cells, 100 μM CaCl2; for Cell K content at end of incubation: SS cells, A23187 + Ca^2+, average of three experiments (control 279±20, Ca^2+ alone 84.9±24). The protocol: Cells were incubated for 60 min at 37° C. in a medium containing 140 mM NaCl, 4 mM KCl, 100 μM CaCl2, 1 mM K-phosphate buffer, pH 7.40, 10 mM tris-MOPS, pH 7.40, at 1-2% Hct. A23187 was subsequently added to a final concentration of 60 μmol/l cells under stirring. At the specified time intervals, the cell suspension was diluted with an equal amount of medium containing 5 MM EGTA and 0.1% BSA. The red cells were then washed four times with the same medium at 37° C. This procedure allowed for chelation of extracellular Ca^2 + and removal of A23187. An aliquot of cells washed in this medium was used to measure the distributions of cell volume and hemoglobin concentration with the H2-Technicon blood analyzer, while the remaining cells were washed four times with choline washing solution (144 mM Choline Cl, 1 mM MgCl2, 10 mM tris-MOPS, pH 7.40 at 4° C.) for measurements of internal Na and K contents.
291-300; Ohnishi et al., Biochim Biophys. Acta 1010:199-203 (1989): Horruchi et al., Blood 71:46-51 (1988)]. However, the results are highly dependent on the protocol used for deoxygenation and reoxygenation of SS cells. We reasoned that the inhibitory effect of CLT and other antimycotics on the dehydration mediated by the Ca^2 +-activated K+ channel should be assessed under conditions of maximal activation of this pathway. If the inhibitor is effective in blocking dehydration in these conditions, it should be able to block dehydration due to transient activation of the channel as during sickling. Accordingly, cells were exposed to A23187 in the presence of 100 μM CaCl2 in a medium containing 140 mM NaCl, 4 mM KCI, at pH 7.40, with or without the transport inhibitors.
After removal of ionophore and chelation of Ca, cell volume and hemoglobin concentration were measured on a cell per cell basis with the Technicon H-2 blood analyzer. […] Distribution histograms for red cell volume and hemoglobin concentration are presented in the lower panel. Arbitrarily established gates (hemoglobin concentration<28 and >41 g/dL; cell volume<60 and>120 fL) are used to define hypo- and hyperchromic cells and micro- and macrocytic cells, respectively. The distribution in the control SS cells (incubated with A23187 in the presence of 1 mM EGTA) resembles a teardrop, with reticulocytes and cells with low HC and high MCV in the top side of middle and left quadrant, discocytes in the central quadrant, and dehydrated dense cells in the right side of the middle quadrant. SS cells exposed to A 23187 and Ca^2+ were markedly dehydrated, as shown by the shift of the hemoglobin concentration (HC) histogram to higher values and by the increased HC values (FIG. 4). […] Measurements of cell cation content at the end of the incubation support the view that these effects are due to inhibition of K loss. […]

For series [3], the system named is AE1 (band 3) chloride/bichloride exchanger. Briefly: ^35SO4 influx into AA erythrocytes (AE1 function). Type of series: cell-based, human. The procedure: The protocol used by Schofield et al. [Nature 355:836-838 (1992)] was used to measure ^35 SO2- uptake in AA erythrocytes.
To determine if the inhibition of Ca^2 +-activated ^86 Rb flux was secondary to an inhibitory effect on the membrane Cl-permeability, the effect of the various compounds on the ^35 SO4 influx was assessed. This assay is a measure of function of the major transport system for red cells, the AE1 (band 3) chloride/bichloride exchanger.

Series [4] concerns the target Gardos channel of sickle erythrocytes (Homo sapiens, UniProt O15554). Briefly: Membrane potential (Em) of SS cells with activated Gardos channel. Type of series: cell-based. The procedure: Measurements of the proton distribution ratio in unbuffered media in the presence of the proton ionophore CCCP allow estimation of the red cell membrane potential (Em). Erythrocytes were washed twice at room temperature with unbuffered medium of the desired composition and added with stirring to 5 ml of the same medium to a final Hct of 5%. All media contained 100 μM ouabain, 10 μM bumetanide, 10 μM DIDS, 10 μM methazolamide and 50 μM CCCP (50 mM stock solution in DMSO. The medium was maintained at 37° C., and pH was recorded for one min prior and 10 min following addition of the red cells. Inhibitors were added to the specified final concentration by appropriate dilution from 10 mM stocks. For internal pH measurements, 20 μl of 10% (v/v) Triton X-100 were added to the cell suspension in unbuffered medium under stirring, and the pH of the resultant lysate measured and assumed to equal pHi. Em was calculated from the equation [formula] [pHi --pHo ], as detailed in Halpern et al, Am. J. Physiol. 257:c986-c996 (1989).
When the Gardos channel is activated, the increased permeability for K+ shifts the membrane potential away from the equilibrium potential for Cl- (ECI) toward the equilibrium potential for K+(EK). This effect is magnified with the Cl-permeability is inhibited by DIDS.

For series [5], the target named is T2, Ca^2+-activated K+ channel of SS cells (Homo sapiens, UniProt O15554).
T2 construct: Blood was collected after obtaining informed consent from patients; endogenous in cells; host or cells: erythrocytes (SS) from patients homozygous for Hb S
Put plainly: Displacement of ^125I-ChTX binding in sickle erythrocytes. The settings on record: for ^125I-ChTX displacement, % of total: 90 min. The protocol: White cells were removed by passing 0.8 mL of packed red cells through a 5 ml syringe containing a mixture of equal parts of alfa-cellulose and microcrystalline cellulose as originally described by Beutler and West [J. Lab. Clin. Med. 88:328-333 (1976)]. Red cells were washed 3 times in binding medium containing 18 mM NaCl, 2 mM KCl, 10 mM tris-Cl, pH 8.0, 230 mM sucrose and 0.25% bovine serum albumin. A suspension was then made in the same medium at 15% Hct. […] Tubes containing cell suspension were gently rotated for 90 min at room temperature. At the end of the incubation, aliquots of 1 ml were pelleted by microfuge and washed 3 times at 4° C. with a solution containing 200 mM NaCl, 10 mM tris-Cl, pH 8.0. The washed red cell pellet was then lysed in 1 ml of 0.01% Acationox®, and counted in a gamma counter. Aliquots of binding medium were counted prior to addition of cells and at the end of the binding assay.
^125 I-ChTX is a specific ligand of the Ca^2 + activated K+ channel of human red cells. […] To examine the interaction between CLT and the Ca^2 +activated K+ channel of SS cells, the question whether CLT can displace ^125 I-ChTX (50 pM) bound to SS cells was tested.

Series [6] deals with T1, Ca^2+-activated K+ channel (Gardos channel) of sickle erythrocytes. Put plainly: Ca^2+-activated ^86Rb influx in sickle (SS) erythrocytes. The format is cell-based. Conditions: medium 20 mM salt (low ionic strength); for IC50: Dixon plot analysis, read-out: Inhibition of ^86Rb influx, IC50.
For series [7] the following is noted: in vivo; cited from earlier work.
The subject of series [8] is Ca^2+ activated K+ channel of human red cells. The settings on record: normal red cells; 50 nM cold ChTX; cited from earlier work.
Where [9] appears, read: Inhibition of ^86Rb influx, IC50.
Setting [10] is: SS erythrocytes, medium 140 mM salt (normal saline).
[11] abbreviates: SS erythrocytes, medium 20 mM salt.
The mark [12] stands for this setting: SS erythrocytes, medium 140 mM salt (normal saline), Dixon plot analysis, read-out: Inhibition of ^86Rb influx, IC50.
The mark [13] stands for this setting: SS erythrocytes, medium 20 mM salt, read-out: ^125I-ChTX displacement, IC50.

Chain of Gardos channel of sickle erythrocytes (O15554 whole entry): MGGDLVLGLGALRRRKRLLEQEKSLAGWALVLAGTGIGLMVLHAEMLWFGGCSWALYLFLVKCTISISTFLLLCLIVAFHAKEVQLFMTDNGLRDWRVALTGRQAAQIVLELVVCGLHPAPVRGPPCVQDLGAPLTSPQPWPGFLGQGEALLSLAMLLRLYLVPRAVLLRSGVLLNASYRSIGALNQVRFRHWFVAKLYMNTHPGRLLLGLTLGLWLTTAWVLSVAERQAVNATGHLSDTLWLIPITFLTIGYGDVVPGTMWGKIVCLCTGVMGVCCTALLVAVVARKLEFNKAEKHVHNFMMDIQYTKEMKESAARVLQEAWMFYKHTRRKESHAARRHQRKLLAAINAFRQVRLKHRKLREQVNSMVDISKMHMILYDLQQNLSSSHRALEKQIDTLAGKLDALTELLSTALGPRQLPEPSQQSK

As to `Clc1ccccc1C(c1ccccc1)(c1ccccc1)n1ccnc1` [Clotrimazole, 1-[(2-chlorophenyl)diplenylmethyl]-1H-imidazole], in series [1], the “Inhibition of Ca^2+-activated ^86Rb influx / K+ transport (in words)” value is listed as “markedly inhibited”; the “Inhibition of ^86Rb influx, % maximum” value was 87% and 93%. In series [2] (10 μM CLT, 50 nM ChTX, listed as CLT), the “Inhibition of dehydration of SS cells (in words)” value is given as “more pronounced than that by 50 nM ChTX; also recorded: substantially prevented dehydration; also recorded: markedly inhibited the dehydration of sickle cells”. Also, the “Cell K content at end of incubation” value in series [2] (10 μM CLT) is given as 210±30 mmol/Kg Hb. In series [3], the “Influx of the anion SO4” value is given as “not affected”. Besides, in series [4] (SS cells, A23187 and 50 μM CaCl2), the “Effect on K+ permeability and membrane potential (Em)” value was “markedly reduced K+ permeability and shifted Em from EK”. The “Inhibitory potency on membrane potential changes” value in series [4] (low ionic strength vs normal saline, listed as CLT) was “higher in low ionic strength conditions than in normal saline”. For the same molecule, the “^125I-ChTX displacement (in words)” value in series [5] is “displaced ^125 I-ChTX in a dose-dependent manner”. In series [5] (sickle erythrocytes), the “^125I-ChTX displacement, % of total” value was found to be 74.5%.

What is called IC50 is the point on the concentration scale where inhibition reaches its midpoint. Regarding `Clc1ccc(COC(Cn2ccnc2)c2ccc(Cl)cc2Cl)cc1` (stereo not shown) [Econazole, 1-[2-[(4-chlorophenyl)methoxyl]-2-(2,14-dichlorophenyl)ethyl]-1H-imidacole], in series [1], the “Inhibition of ^86Rb influx, % maximum” value was 31% and 47%. For the same molecule, the IC50 in series [1] (setting [9]) was 270 nM and 575 nM; in series [5] it was 205 nM. Also, in series [5] (sickle erythrocytes), the “^125I-ChTX displacement, % of total” value was 37%.

With `OC(Cn1cncn1)(Cn1cncn1)c1ccc(F)cc1F` [Fluconazole], the “Inhibition of ^86Rb influx, % maximum” value in series [6] and in series [1] (setting [10]) was 0% in each case. The “Inhibition of Ca^2+-activated ^86Rb influx / K+ transport (in words)” value in series [1] (SS erythrocytes) was “non-active”; in series [1] (SS erythrocytes, listed as fluconazole), “no inhibition”. Moreover, the “^125I-ChTX displacement, % of total” value in series [5] (setting [11]) amounted to 19%.

On to `Cc1ncc([N+](=O)[O-])n1CCO` [Metronidazole, 2-methyl-5-nitroimidazole-1-ethanol], for which the “Inhibition of ^86Rb influx, % maximum” value in series [6] came to 28%; in series [1] (setting [10]) it was 36%. In addition, the half-inhibitory concentration (IC50) in series [6] is 850 nM; in series [1] (setting [12]) it was 440 nM; in series [5] (setting [13]), 580 nM. Further, in series [1] (SS erythrocytes), the “Inhibition of Ca^2+-activated ^86Rb influx / K+ transport (in words)” value is on record as “partially inhibited”. In addition, in series [1] (SS erythrocytes), the “Sequence / rank of inhibitory potency on the Gardos pathway” value is “clotrimazole>miconazole>econazole>metronidazole”. Also, the “^125I-ChTX displacement, % of total” value in series [5] (setting [11]) is on record as 49%.

For `Clc1ccc(COC(Cn2ccnc2)c2ccc(Cl)cc2Cl)c(Cl)c1` (stereo not shown) [Miconazole], the “Marrow hyoplasia, share of the use cases” value in series [7] was 40%. Besides, the “Inhibition of ^86Rb influx, % maximum” value in series [1] was 63% and 49%. In addition, the IC50 in series [1] (setting [9]) is 110 nM and 100 nM; in series [5], 165 nM. In series [5] (sickle erythrocytes), the “^125I-ChTX displacement, % of total” value is listed as 57%.

On to `Cc1ncc([N+](=O)[O-])n1CC(O)CCl` (stereo not shown) [Ornidazole], for which the “Inhibition of ^86Rb influx, % maximum” value in series [6] came out at 11%; in series [1] (setting [10]), 21%. In addition, the “Inhibition of ^86Rb influx at 10 μM (in words)” value in series [1] (SS erythrocytes) is given as “only marginally”.

As to `CCS(=O)(=O)CCn1c([N+](=O)[O-])cnc1C` [Tinidazole], the “Inhibition of ^86Rb influx, % maximum” value was found to be 21% in series [6] and 3% in series [1] (setting [10]). Moreover, the “Inhibition of ^86Rb influx at 10 μM (in words)” value in series [1] (SS erythrocytes) is listed as “only marginally”.

As to CHARYBDOTOXIN, in series [8], the “Total binding displaced by excess cold ChTX” value is reported as 60-70%. Moreover, the “Inhibition of ^86Rb influx, % maximum” value in series [6] is listed as 95.5%; in series [1] (setting [10]) it was 52%. In addition, the half-maximal inhibitory concentration (IC50) was 0.096 nM in series [6], 0.36 nM in series [1] (setting [12]) and 0.033 nM in series [5] (setting [13]). In series [2] (10 μM CLT, 50 nM ChTX), the “Inhibition of dehydration of SS cells (in words)” value was “partially inhibited dehydration”. Besides, in series [2] (50 nM ChTX), the “Cell K content at end of incubation” value was determined as 192.8±39 mmol/Kg Hb. The “^125I-ChTX displacement, % of total” value in series [5] (setting [11]) was determined as 74.5%.
